Data: US6335322B1, “Therapeutic agents” (priority 1993, dated 2002)
“Also recorded” adds a separate entry of the source. Where two headings read alike, the source gives them in different places.

What was measured:
[1] = tested on: brain metastasis of a melanoma; assay: Clonogenic agarose assay, melanoma brain metastasis biopsy; assay type: cell-based, human
Description: A biopsy was taken from the patient and placed immediately in a growth medium. […] Twenty-four hours before termination of the cultures (7 days) ^3H Thymidin was added. The activity of the test substance is thus quantified as cpm in a scintillation counter.

[2] = rat, in vivo
Description: (§2) Plasma concentrations of total radioactivity and of the metabolites were determined at different timepoints. Tissue concentrations of total radioactivity were determined from a range of tissues at different timepoints up to 120 hours following injection. Liver tissues were extracted and metabolite concentrations were determined up to 72 hours post injection.

[3] = tested on: TLX/5 lymphoma; assay: Anti-tumour activity against murine TLX/5 lymphoma; assay type: in vivo, CBA mice; conditions: FIG. 16; for Maximum increase in lifespan: i.p. days 3-7, 6.25-50 mg/kg/day, median of 5; for doses at which active (increase in life span): i.p. treatment for 5 days
Description: CBA mice weighing 20-25 g were inoculated subcutaneously inguinally with 1×10^5, TLX/5 tumour cells day 0. […] Doses were in the range 6.25-50 mg/kg/day. There were 5 mice per treatment per group and 10 tumour-bearing controls. Activity was assessed in terms of increase in life span (ILS) versus controls.

[4] = tested on: Raji human B-lymphoma cells; assay: Raji leptomeningal carcinomatosis model in nude rats; assay type: in vivo; conditions: for mean day of death: 3 bolus injections on day 1, 2 and 4
Description: The model used is a tumour model in nude rats for leptomeningal growth of tumours. 1×10^6 cells of the Bcell tumour line Raji were injected into the spinal fluid through cistema magna (c.m.). of 4-5 weeks old nude rats. […] Anaesthetised animals were treated intracerebrally with a 40 μl injection into cistema magna with 3 or 4 bolus injections. Treatment was started 1 day after cell inoculation.

[5] = tested on: A549 cells (human lung carcinoma); assay: Cell inactivation, colony forming ability, A549; assay type: cell-based; conditions: FIG. 9; exposed for 24 hours
Description: (§1) Cell inactivation measured by means of loss of ability to form colonies was determined for several compounds. Cells used were of the established human cell lines of cancer cervix in situ origin, NHIK 3025, NHIK 3025/DDP, a cis-DDP-resistant variant of the same or A549 cells (human lung carcinoma). The cells were exposed to the test compound for 4 up till 24 hours. Test compounds were administered as micellar solution. Number of colonies were counted after about 12 days of incubation.
The cells were exposed for 24 hours.

[6] = tested on: NHIK 3025/DDP cells; assay: Cell inactivation, colony forming ability, NHIK 3025/DDP; assay type: cell-based, human; conditions: FIG. 8; 4 h treatment
Description: as §1
The results here are obtained with 4 h treatment of NHIK 3025/DDP cells.

[7] = tested on: Molt 4 human lymphoma cells; assay: Molt 4 leptomeningal carcinomatosis model in nude rats; assay type: in vivo; conditions: FIG. 12; treated 4x in cisterna magna
Description: The model used is a tumour model in nude rats for leptomeningal growth of tumours. 10^6 cells of the T-cell tumour line Molt 4 were injected into the spinal fluid through cistema magna (c.m.) of 4-5 weeks old nude rats. The animals develop neurological symptoms after 20-22 days if untreated. Anaesthetised animals were treated intracerebrally with a 40 μl injection into cistema magna with 4 bolus injections. Treatment was started 1 day after cell inoculation. Test compounds were Ara-C-5′-elaidyl ester (in micelles) and Ara-C. Ara-C was administered both at maximal tolerable dose (MTD) and at an equimotar dose to Ara-C-5′-elaidyl ester. Control animals (treated with NaCl) developed symptoms from the central nervous system after approximately 20 days.

[8] = tested on: NFkappaB; assay: Activation of the cellular transcription factor NFkappaB (β-galactosidase reporter, SW480 cells); assay type: cell-based, human; conditions: FIG. 15; exposure 4 h
Description: Human SW480 colon adenocarcinoma cells stably transfected with a CMV promotor/enhancer containing the gene for β-galactosidase were used. Activation of the transcription factor NFkappaB results in enhanced amount of the enzyme β-galactosidase in cytoplasma. The amount of β-galactosidase is quantified using optical density at 570 nm as parameter. The […] cells were incubated 2-3 days before exposure to the test compound for 4 h. The cells were washed and prepared, and optical density recorded for the different compounds.

[9] = tested on: Raji human B-lymphoma cells; assay: Leukaemia model using Raji cells in SCID mice; assay type: in vivo
Description: SCID mice were injected intravenously with 1×10^6 Raji human B-lymphoma cells. […] Animals develop paralysis of the hind legs as a result of the tumour growth.

[10] = tested on: PV/2b/35 hemangiosarcoma cells; assay: Anti-tumour activity in SCID mice with hemangiosarcoma cells; assay type: in vivo; conditions: FIG. 17, 25 mg/kg/day
Description: SCID mice were inoculated intraperitoneally with PV/2b/35 hemangiosarcoma cells. […] Controls were empty micelles, DMSO or PBS respectively. The animals were not treated during weekends. Survival was the endpoint of the study.

[11] = tested on: glioblastoma cell line U-118; assay: Glioblastoma U-118 subcutaneous tumour in nude mice, intratumoural injection
Description: A glioblastoma cell line U-118 (Uppsala) tissue culture was injected subcutaneously in nude mice. A small part (2×2 mm) of growing tumour was transferred to new mice. […] Depending on the actual tumour size, the animals received the same relative amount of test substance. The control was given saline water. The growth rate was recorded as relative tumour volume (RTV).

[12] = Comparative pharmacokinetic, distribution, metabolism and excretion, i.v. to male rats; conditions: for Excretion of radioactivity: 14C-Ara-C-elaidate 5 mg/kg or 14C-Ara-C 2.4 mg/kg
Description: as §2

[13] = tested on: glioblastoma taken from a patient; assay: Clonogenic agarose assay, glioblastoma biopsy; assay type: cell-based, human; conditions: FIGS. 1 and 2
Description: A biopsy was taken from the patient and placed immediately in a growth medium. Tumour tissue was desegregated mechanically, and living cells were selected the chemotherapeutic test substance was added, BCNU (in water) and Ara-C and Ara-C esters (in micelles), and the cells were cultivated in a soft agarose medium. Twenty-four hours before termination of the cultures (7 days) ^3H Thymidin was added. The activity of the test substance is thus quantified as cpm in a scintillation counter.
The results here are obtained with a glioblastoma taken from a patient. The same response pattern is found in 8 other glioblastoma biopsies. […] The results are given as % of the untreated control. A count of 50% (CD50) is taken as promising regarding use in therapy of this actual cancer line. What is worth nothing here is the 10^1.5 higher concentration of Ara-C needed to obtain CD50 as compared with elaidyl esters.

Compound: Nc1ccn([C@@H]2O[C@H](CO)[C@@H](O)[C@@H]2O)c(=O)n1 [Ara-C, 1-β-D-arabinofuranosylcytosine, reference compound]
- difference (CD50 concentration) between Ara-C and the 3′- and 5′-elaidyl esters ([1]; FIG. 3): ~10 times
- time up to which Ara-C is detectable in plasma ([2]; male): 24 h
- liver concentration of Ara-C ([2]; male, 4 h): non-detectable levels after 4 hours
- plasma levels of both Ara-C and Ara-U ([2]; male, 48 h): below the assay limit of detection at 48 h
- proportion of the dose in whole-blood ([2]; male, iv, 0.08 h): 7.76%
- Maximum increase in lifespan [3]: 32.7%
- doses at which active (increase in life span) [3]: only active at the dose 25 mg/kg
- mean day of death ([4]; FIG. 10): 13 days
- effect on survival ([4]; FIG. 11, 4 bolus doses day 1-4, Ara-C at MTD and at dose equimolar to Ara-C-elaidate): void of activity; also recorded: no effects

Compound: CCCCCCCCCCCC=CCCCCC(=O)OCC1OC(n2ccc(N)nc2=O)C(O)C1O (stereo not drawn) [Ara-C-5′-petroseline ester]
- inactivation (colony forming ability) compared to Ara-C [5]: enhanced effect

Compound: CCCCCCCCCCCCCCCCCC(=O)OCC1OC(n2ccc(N)nc2=O)C(O)C1O (stereo not drawn) [Ara-C-5′-stearyl ester]
- inactivation (colony forming ability) compared to Ara-C [5]: highest inactivation

Compound: CCCCCCCC/C=C/CCCCCCCC(=O)OC[C@H]1O[C@@H](n2ccc(N)nc2=O)[C@@H](O)[C@@H]1O [Ara-C-elaidate, 5′-O-(Elaidoyl) 1-β-D-arabinofuranosylcytosine]
- inactivation (colony forming ability) compared to Ara-C [5]: enhanced effect
- effect on colony forming ability compared to Ara-C [6]: Enhanced effect
- onset of death compared to Ara-C or control [7]: delayed
- β-galactosidase activity (optical density at 570 nm), NFkappaB activation [8]: substantial increase in β-galactosidase activity
- fraction of the molar dose of Ara-C giving similar anti-cancer effects ([9]; FIG. 13): 1/20
- mean survival ([9]; FIG. 13, i.v. days 7, 9, 11, 13, 15, 20 mg/kg Ara-C-elaidate vs 200 mg/kg Ara-C): increased mean survival compared to control and Ara-C treated animals
- mean survival time ([9]; FIG. 14, i.p. once daily days 7-11, versus every other day): greatly prolonged
- survival ([10]; 5 days per week): greatly enhanced
- survival compared to control ([10]; dissolved in DMSO): enhanced survival compared to control
- survival compared to control ([10]; prepared in micelles): enhanced survival compared to control
- initial whole blood and plasma concentration compared to Ara-C [2]: higher
- maximal concentrations compared to Ara-C [2]: lower
- maximal concentrations in most tissues compared to Ara-C [2]: notably higher and occurred at later timepoints
- plasma levels of both Ara-C and Ara-U [2]: can still be quantified at 72 h
- tissue concentration of total radioactivity compared to 14C-Ara-C [2]: higher at all timepoints up to 120 hours
- concentration of active drug in RES tissues compared to Ara-C ([2]; iv): significantly higher
- elimination from tissues compared to 14C-Ara-C ([2]; iv): much slower
- tissue distribution compared to Ara-C ([2]; iv): significantly altered
- CNS disturbance ([11]; FIG. 18, intratumoural injection): nor was there noted any sign of CNS disturbance
- tumour growth (relative tumour volume) ([11]; FIG. 18, intratumoural injection of 10 mg/ml micellar solution): complete stop in tumour growth
- toxic side effects ([11]; mouse, in vivo): no signs of toxic side effects
- Maximum increase in lifespan [3]: 47.2%
- doses at which active (increase in life span) [3]: active at the doses 12.5 mg/kg and 25 mg/kg
- increase of symptom free latency period as compared to Ara-C ([4]; FIG. 10, 3 bolus injections into cisterna magna on day 1, 2 and 4): 135%
- mean day of death ([4]; FIG. 10): 30.5 days
- survival of one rat (considered cured) ([4]; FIG. 10, 3 bolus injections, no tumours at necropsy day 76): more than 70 days
- rats still alive and symptom-free at day 70 ([4]; FIG. 11, 4 daily bolus doses day 1-4 into cisterna magna): 3 out of 5
- Excretion of radioactivity ([12]; 0-6 hours, i.v. male rats): 59.1 ± 3.7 % of dose
- Excretion of radioactivity ([12]; 6-24 hours, i.v. male rats): 34.1 ± 2.5 % of dose
- Excretion of radioactivity ([12]; 24-48 hours, i.v. male rats): 2.7 ± 0.8 % of dose
- Excretion of radioactivity ([12]; 48-72 hours, i.v. male rats): 0.5 ± 0.1 % of dose
- Excretion of radioactivity ([12]; 72-96 hours, i.v. male rats): 0.2 ± 0.1 % of dose
- detection of metabolite Ara-U in liver ([12]; FIG. 19): no detection of Ara-U up to 24 hours
- time a therapeutic significant Ara-C level is sustained in liver ([12]; FIG. 19, after dosing the ester): at least 72 h
- time up to which Ara-C is detectable in plasma ([12]; FIG. 20): 72 h
- metabolism of Ara-C to Ara-U ([12]; FIG. 20, plasma): less extensive, and starts later
- rate of excretion of radioactivity in urine compared to 14C-Ara-C ([12]; Table 2): slower
- proportion of the dose in whole-blood ([12]; at 0.08 hours after i.v. administration): 64.7%
- excretion via the renal system compared to Ara-C ([12]; i.v. male rats): much slower
- conversion to Ara-U compared to Ara-C ([12]; table 1 and FIG. 20): slower

Compound: O=NN(CCCl)C(=O)NCCCl [BCNU, N,N-cis(2-chloroethyl)N-nitroso-urea]
- higher concentration to give CD50 compared to the Ara-C esters ([1]; FIG. 4): more than 1×10^2
- concentration needed to obtain CD50, times higher than with the Ara-C esters [13]: about 10 times
- concentration needed to obtain CD50 compared to Ara-C alone [13]: reasonably comparable
